Measurements reported in ChEMBL document CHEMBL4507264, “Data for DCP probe BAY-7598” (2021).
Activity calls are given as the source filed them.

Legend:
[1] = target: 5-hydroxytryptamine receptor 3A (Homo sapiens) (UniProt P46098); conditions: Compound concentration 10.0 uM
[2] = target: D(2) dopamine receptor (Homo sapiens) (UniProt P14416); conditions: Compound concentration 10.0 uM
[3] = species: Rattus norvegicus; assay: Inhibition of Glutamate, NMDA, Phencyclidine at 10 µM in the Eurofins-Panlabs radioligand binding assay (Eurofins_assay_233000); assay type: protein-complex assay; conditions: Compound concentration 10.0 uM
[4] = target: Glutamate receptor ionotropic, kainate (Rattus norvegicus) (UniProt P22756+Q01812+P42260+P42264+Q63273); assay: Inhibition of Glutamate, Kainate at 10 µM in the Eurofins-Panlabs radioligand binding assay (Eurofins_assay_232700); conditions: Compound concentration 10.0 uM
[5] = target: Epidermal growth factor receptor (Homo sapiens) (UniProt P00533); assay: Inhibition of Epidermal Growth Factor (EGF) at 10 µM in the Eurofins-Panlabs radioligand binding assay (Eurofins_assay_225510); conditions: Compound concentration 10.0 uM
[6] = target: D(3) dopamine receptor (Homo sapiens) (UniProt P35462); conditions: Compound concentration 10.0 uM
[7] = target: Acetylcholine receptor subunit alpha (Homo sapiens) (UniProt P02708); assay: Inhibition of Nicotinic Acetylcholine D1, Bungarotoxin at 10 µM in the Eurofins-Panlabs radioligand binding assay (Eurofins_assay_258700); conditions: Compound concentration 10.0 uM
[8] = target: Adenosine receptor A3 (Homo sapiens) (UniProt P0DMS8); conditions: Compound concentration 10.0 uM
[9] = target: Sodium-dependent noradrenaline transporter (Homo sapiens) (UniProt P23975); conditions: Compound concentration 10.0 uM
[10] = target: L-type calcium channel, benzothiazepine site (Cav1.2 alpha-1C) (Homo sapiens, UniProt Q13936); assay: Inhibition of Calcium Channel L-Type, Benzothiazepine at 10 µM in the Eurofins-Panlabs radioligand binding assay (Eurofins_assay_214510); parameters: ligand concentration 2 nM, non-specific ligand with concentration 10 µM Diltiazem, incubation time 3h, incubation temperature 4 °C; conditions: male, Wistar, rat, rat whole brain preparation, probe [3H] Diltiazem; compound concentration 10 uM; target entry is the homologue from another species
[11] = target: Glutamate NMDA receptor (Rattus norvegicus) (UniProt P35439+Q00959+Q00960+Q00961+Q62645+Q8VHN2+Q9R1M7); conditions: Compound concentration 10.0 uM
[12] = target: Neuropeptide Y receptor type 1 (Homo sapiens) (UniProt P25929); assay: Inhibition of Neuropeptide Y Y1 at 10 µM in the Eurofins-Panlabs radioligand binding assay (Eurofins_assay_257010); conditions: Compound concentration 10.0 uM
[13] = target: Prostaglandin E2 receptor EP4 subtype (Homo sapiens) (UniProt P35408); assay: Inhibition of Prostanoid EP4 at 10 µM in the Eurofins-Panlabs radioligand binding assay (Eurofins_assay_268420); parameters: ligand concentration 1 nM; conditions: Compound concentration 10.0 uM
[14] = target: Sigma non-opioid intracellular receptor 1 (Homo sapiens) (UniProt Q99720); assay: Sigma 1 Eurofins-Panlabs radioligand binding assay; parameters: ligand concentration 8 nM; conditions: Compound concentration 10.0 uM
[15] = target: Substance-P receptor (Homo sapiens) (UniProt P25103); assay: Inhibition of Tachykinin NK1 at 10 µM in the Eurofins-Panlabs radioligand binding assay (Eurofins_assay_255520); parameters: ligand concentration 0.8 nM; conditions: Compound concentration 10.0 uM
[16] = target: Sigma non-opioid intracellular receptor 1 (Homo sapiens) (UniProt Q99720); assay: Inhibition of Sigma 1 at 10 µM in the Eurofins-Panlabs radioligand binding assay (Eurofins_assay_278110); parameters: ligand concentration 8 nM; conditions: Compound concentration 10.0 uM
[17] = target: Cysteinyl leukotriene receptor 1 (Homo sapiens) (UniProt Q9Y271); assay: Inhibition of Leukotriene, Cysteinyl CysLT1 at 10 µM in the Eurofins-Panlabs radioligand binding assay (Eurofins_assay_250460); parameters: ligand concentration 0.3 nM, non-specific ligand with concentration 0.3 µM Leukotriene D4, incubation time 30 min, incubation temperature 25 °C; conditions: Compound concentration 10.0 uM
[18] = target: Mu-type opioid receptor (Homo sapiens) (UniProt P35372); conditions: Compound concentration 10.0 uM
[19] = target: Macrophage metalloelastase (Homo sapiens, UniProt P39900); assay: Biophysical assay (SPR biosensor-based assay)
[20] = target: Muscarinic acetylcholine receptor M3 (Homo sapiens) (UniProt P20309); conditions: Compound concentration 10.0 uM
[21] = target: T1, Muscarinic acetylcholine receptor M2 (Homo sapiens) (UniProt P08172); conditions: Compound concentration 10.0 uM
T1 sequence (whole entry): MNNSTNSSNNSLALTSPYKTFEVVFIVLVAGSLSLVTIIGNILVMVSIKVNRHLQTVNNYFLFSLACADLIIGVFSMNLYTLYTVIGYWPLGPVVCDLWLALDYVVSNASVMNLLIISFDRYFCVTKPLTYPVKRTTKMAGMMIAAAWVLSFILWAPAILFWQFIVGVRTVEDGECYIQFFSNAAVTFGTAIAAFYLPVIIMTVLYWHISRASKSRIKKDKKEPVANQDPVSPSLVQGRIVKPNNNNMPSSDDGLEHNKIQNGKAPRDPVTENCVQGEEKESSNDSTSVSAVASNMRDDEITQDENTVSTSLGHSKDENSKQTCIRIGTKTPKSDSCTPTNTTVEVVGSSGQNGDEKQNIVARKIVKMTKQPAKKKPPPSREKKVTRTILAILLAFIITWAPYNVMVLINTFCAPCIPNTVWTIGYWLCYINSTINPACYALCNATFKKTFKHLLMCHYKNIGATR

[22] = species: Rattus norvegicus; assay: Testosterone Eurofins-Panlabs radioligand binding assay; parameters: ligand concentration 1.5 nM; conditions: Compound concentration 10.0 uM
[23] = target: D(1A) dopamine receptor (Homo sapiens) (UniProt P21728); conditions: Compound concentration 10.0 uM
[24] = target: Cannabinoid receptor 1 (Homo sapiens) (UniProt P21554); conditions: Compound concentration 10.0 uM
[25] = target: Estrogen receptor (Homo sapiens) (UniProt P03372); conditions: Compound concentration 10.0 uM
[26] = target: Beta-2 adrenergic receptor (Homo sapiens) (UniProt P07550); conditions: Compound concentration 10.0 uM
[27] = target: Beta-1 adrenergic receptor (Homo sapiens) (UniProt P08588); conditions: Compound concentration 10.0 uM
[28] = target: T2, D(4) dopamine receptor (Homo sapiens) (UniProt P21917); assay: Inhibition of Dopamine D4.2 at 10 µM in the Eurofins-Panlabs radioligand binding assay (Eurofins_assay_219900); parameters: ligand concentration 0.5 nM; conditions: Compound concentration 10.0 uM
T2 sequence (whole entry): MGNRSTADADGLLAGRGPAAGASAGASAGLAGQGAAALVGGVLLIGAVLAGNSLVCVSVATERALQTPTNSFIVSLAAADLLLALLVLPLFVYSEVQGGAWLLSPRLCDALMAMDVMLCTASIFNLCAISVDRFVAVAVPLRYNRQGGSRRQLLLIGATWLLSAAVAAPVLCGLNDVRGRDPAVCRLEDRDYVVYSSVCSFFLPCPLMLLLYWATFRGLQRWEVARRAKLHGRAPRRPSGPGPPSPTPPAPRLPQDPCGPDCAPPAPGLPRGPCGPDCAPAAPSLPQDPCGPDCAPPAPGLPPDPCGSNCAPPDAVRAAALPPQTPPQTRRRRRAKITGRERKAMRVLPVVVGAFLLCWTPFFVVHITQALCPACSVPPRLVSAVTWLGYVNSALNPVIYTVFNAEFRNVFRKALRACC

[29] = target: Neuropeptide Y receptor type 2 (Homo sapiens) (UniProt P49146); assay: Inhibition of Neuropeptide Y Y2 at 10 µM in the Eurofins-Panlabs radioligand binding assay (Eurofins_assay_257110); conditions: Compound concentration 10.0 uM
Chain of Neuropeptide Y receptor type 2 (Homo sapiens) (P49146 whole entry): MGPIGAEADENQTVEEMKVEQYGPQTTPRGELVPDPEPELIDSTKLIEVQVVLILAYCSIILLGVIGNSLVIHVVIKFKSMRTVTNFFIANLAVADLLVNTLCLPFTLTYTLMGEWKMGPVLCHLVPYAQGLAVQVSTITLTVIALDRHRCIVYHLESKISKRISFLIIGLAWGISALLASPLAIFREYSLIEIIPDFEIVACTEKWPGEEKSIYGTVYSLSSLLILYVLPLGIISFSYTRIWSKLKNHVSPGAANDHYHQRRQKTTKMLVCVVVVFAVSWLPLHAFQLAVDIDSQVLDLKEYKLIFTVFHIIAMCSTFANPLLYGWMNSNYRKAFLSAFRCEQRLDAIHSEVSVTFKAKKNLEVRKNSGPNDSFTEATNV

Chain of Sigma non-opioid intracellular receptor 1 (Homo sapiens) (Q99720 whole entry): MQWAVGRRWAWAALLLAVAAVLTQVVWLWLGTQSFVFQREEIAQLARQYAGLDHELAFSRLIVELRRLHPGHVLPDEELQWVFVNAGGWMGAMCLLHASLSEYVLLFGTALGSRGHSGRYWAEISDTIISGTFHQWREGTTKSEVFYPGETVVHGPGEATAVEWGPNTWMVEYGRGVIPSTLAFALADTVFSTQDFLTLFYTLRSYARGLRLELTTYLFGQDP
Chain of Cannabinoid receptor 1 (Homo sapiens) (P21554 whole entry): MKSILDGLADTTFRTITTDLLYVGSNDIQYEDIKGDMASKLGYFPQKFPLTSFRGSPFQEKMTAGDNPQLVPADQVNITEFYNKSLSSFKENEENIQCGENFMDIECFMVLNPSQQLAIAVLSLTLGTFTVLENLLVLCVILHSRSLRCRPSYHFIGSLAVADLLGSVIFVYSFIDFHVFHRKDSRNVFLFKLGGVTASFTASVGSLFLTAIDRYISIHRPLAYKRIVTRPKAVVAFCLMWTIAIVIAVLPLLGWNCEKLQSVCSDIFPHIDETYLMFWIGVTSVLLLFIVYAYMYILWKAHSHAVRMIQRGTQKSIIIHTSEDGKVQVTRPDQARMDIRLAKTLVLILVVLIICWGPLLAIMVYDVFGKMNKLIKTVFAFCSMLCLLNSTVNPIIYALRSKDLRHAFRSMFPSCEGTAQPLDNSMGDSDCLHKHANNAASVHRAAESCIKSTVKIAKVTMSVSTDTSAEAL
Chain of D(2) dopamine receptor (Homo sapiens) (P14416 whole entry): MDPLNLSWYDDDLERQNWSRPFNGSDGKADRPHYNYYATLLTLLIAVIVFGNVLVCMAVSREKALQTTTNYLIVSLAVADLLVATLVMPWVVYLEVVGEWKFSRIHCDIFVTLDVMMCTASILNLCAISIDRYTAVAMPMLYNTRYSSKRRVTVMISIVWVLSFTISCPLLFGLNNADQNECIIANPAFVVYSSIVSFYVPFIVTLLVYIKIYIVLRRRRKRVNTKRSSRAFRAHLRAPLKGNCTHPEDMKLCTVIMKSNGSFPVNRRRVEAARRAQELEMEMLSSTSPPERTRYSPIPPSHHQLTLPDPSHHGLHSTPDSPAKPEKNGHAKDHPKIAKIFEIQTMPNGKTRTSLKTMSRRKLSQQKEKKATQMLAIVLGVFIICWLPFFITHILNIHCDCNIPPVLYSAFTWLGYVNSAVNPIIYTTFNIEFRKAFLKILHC
Chain of Epidermal growth factor receptor (Homo sapiens) (P00533 whole entry): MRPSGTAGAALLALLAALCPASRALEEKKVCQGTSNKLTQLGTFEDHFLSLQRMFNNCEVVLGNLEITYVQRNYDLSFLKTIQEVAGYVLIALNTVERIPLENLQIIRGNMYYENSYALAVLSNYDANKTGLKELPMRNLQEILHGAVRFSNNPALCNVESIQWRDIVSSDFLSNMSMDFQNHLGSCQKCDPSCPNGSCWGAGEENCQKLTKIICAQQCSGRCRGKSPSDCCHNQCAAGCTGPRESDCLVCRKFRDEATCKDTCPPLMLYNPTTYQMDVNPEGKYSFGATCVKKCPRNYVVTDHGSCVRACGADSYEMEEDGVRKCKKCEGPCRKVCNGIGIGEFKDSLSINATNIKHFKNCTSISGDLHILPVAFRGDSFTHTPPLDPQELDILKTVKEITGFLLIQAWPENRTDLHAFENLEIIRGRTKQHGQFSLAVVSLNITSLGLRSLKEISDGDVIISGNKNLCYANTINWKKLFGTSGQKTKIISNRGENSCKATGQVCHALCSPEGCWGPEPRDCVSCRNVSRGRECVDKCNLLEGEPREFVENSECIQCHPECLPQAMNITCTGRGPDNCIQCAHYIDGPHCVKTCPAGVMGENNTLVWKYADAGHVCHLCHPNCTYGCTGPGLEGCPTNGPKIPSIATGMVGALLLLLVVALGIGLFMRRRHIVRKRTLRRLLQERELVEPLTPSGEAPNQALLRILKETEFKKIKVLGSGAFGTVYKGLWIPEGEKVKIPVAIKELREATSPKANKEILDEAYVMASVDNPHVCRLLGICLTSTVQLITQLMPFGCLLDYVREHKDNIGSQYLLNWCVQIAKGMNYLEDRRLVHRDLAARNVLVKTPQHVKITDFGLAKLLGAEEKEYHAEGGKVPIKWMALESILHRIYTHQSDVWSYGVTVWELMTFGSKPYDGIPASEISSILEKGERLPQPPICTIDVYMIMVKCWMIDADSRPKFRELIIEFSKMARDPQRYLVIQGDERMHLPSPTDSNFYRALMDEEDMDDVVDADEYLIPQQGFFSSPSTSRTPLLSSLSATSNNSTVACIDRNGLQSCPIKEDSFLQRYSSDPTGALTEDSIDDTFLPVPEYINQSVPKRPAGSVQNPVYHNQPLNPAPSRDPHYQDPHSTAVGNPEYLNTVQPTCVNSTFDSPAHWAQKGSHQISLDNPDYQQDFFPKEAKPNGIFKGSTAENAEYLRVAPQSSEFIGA
Chain of Acetylcholine receptor subunit alpha (Homo sapiens) (P02708 whole entry): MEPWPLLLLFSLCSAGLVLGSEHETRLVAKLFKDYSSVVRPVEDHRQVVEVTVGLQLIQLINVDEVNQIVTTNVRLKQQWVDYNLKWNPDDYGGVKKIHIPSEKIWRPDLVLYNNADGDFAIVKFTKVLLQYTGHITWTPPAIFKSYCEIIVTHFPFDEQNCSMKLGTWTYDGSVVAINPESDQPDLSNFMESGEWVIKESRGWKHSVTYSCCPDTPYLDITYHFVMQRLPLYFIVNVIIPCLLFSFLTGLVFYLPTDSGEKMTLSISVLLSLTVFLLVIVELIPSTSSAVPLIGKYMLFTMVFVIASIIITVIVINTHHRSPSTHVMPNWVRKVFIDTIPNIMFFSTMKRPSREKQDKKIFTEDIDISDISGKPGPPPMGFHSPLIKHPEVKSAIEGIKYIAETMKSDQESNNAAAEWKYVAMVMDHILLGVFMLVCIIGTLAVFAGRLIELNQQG
Chain of Mu-type opioid receptor (Homo sapiens) (P35372 whole entry): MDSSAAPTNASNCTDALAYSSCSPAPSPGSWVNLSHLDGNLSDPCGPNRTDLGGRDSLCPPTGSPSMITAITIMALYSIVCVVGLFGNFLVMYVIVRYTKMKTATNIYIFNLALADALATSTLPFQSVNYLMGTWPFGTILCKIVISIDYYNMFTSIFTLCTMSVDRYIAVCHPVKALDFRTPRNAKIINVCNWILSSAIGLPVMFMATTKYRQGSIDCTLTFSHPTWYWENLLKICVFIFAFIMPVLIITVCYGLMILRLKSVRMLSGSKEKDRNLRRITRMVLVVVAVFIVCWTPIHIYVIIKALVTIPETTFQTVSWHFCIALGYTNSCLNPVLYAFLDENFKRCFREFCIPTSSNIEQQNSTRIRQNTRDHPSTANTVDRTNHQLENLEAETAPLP
Chain of D(3) dopamine receptor (Homo sapiens) (P35462 whole entry): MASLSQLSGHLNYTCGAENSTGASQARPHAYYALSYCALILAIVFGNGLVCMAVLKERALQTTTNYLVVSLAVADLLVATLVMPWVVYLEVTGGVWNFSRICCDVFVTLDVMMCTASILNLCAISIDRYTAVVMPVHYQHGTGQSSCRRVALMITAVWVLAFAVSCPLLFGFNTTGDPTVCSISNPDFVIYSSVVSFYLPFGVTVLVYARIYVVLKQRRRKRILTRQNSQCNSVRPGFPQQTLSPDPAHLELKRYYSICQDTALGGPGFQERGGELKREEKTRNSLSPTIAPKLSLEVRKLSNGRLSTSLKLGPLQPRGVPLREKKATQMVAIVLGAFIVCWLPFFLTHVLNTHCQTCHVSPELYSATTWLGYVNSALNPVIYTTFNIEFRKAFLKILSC
Chain of 5-hydroxytryptamine receptor 3A (Homo sapiens) (P46098 whole entry): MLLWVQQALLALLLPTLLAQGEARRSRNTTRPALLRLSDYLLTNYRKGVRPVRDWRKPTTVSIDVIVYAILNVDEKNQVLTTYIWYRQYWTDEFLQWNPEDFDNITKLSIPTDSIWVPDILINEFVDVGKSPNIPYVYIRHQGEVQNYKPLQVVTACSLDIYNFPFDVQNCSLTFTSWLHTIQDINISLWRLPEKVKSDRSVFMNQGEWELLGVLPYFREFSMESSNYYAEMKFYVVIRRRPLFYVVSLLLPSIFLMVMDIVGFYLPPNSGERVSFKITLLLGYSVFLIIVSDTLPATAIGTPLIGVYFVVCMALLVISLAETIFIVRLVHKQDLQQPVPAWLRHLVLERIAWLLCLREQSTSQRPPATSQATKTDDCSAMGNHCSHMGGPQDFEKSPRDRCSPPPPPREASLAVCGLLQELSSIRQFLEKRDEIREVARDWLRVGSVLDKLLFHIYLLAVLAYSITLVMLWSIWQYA
Chain of Adenosine receptor A3 (Homo sapiens) (P0DMS8 whole entry): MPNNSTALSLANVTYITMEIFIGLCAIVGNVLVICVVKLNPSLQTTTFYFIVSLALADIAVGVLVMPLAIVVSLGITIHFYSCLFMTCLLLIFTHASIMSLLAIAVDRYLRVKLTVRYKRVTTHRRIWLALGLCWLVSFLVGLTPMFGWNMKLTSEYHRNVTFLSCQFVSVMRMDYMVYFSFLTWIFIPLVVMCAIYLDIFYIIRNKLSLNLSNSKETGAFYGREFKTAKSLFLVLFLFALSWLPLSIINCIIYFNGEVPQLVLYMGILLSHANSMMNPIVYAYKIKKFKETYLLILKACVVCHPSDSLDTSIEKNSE

O=C(O)[C@H]1[C@H](Cn2nnc3ccccc3c2=O)CC[C@@H]1C(=O)c1ccc(OCCC2CCOCC2)cc1 [BAY-7598]
-9% (not active): inhibition at 3 h, 10 µM [10]
inactive: inhibition [1] -7.84% | inhibition [2] 2% | inhibition [3] 4% | inhibition [4] -4% | inhibition [5] 7% | inhibition [6] 12% | inhibition [7] 0% | inhibition [8] 13% | inhibition [9] 6% | inhibition [11] 9% | inhibition [12] 1% | inhibition [13] 19% | inhibition [14] 15% | inhibition [15] -4% | inhibition [16] -7% | inhibition [17] 8% | inhibition [18] -9.72% | inhibition [20] 2% | inhibition [21] 0% | inhibition [22] 12% | inhibition [23] 3% | inhibition [24] 17% | inhibition [25] 2% | inhibition [26] 4% | inhibition [27] 0% | inhibition [28] -2% | inhibition [29] 3%
active: Kd [19] 4 pM
